Measured values: patent publication US5086069A, “Anti-thrombotic peptide and pseudopeptide derivatives” (Rorer Pharmaceutical Corporation, priority 1990, dated 1992)
Read-outs that look alike come from different tables or passages of the source.

Legend:
Human Platelets = test: Inhibition of Fibrinogen-Mediated Platelet Aggregation; format: cell-based; settings: thrombin-activated human platelets; for inhibition at 25 µM / Inhibition of Fibrinogen Mediated Platelet Aggregation % inhibition at 25 μM: 25 μM compound; for IC50: human fibrinogen added, rate of aggregation
Description: II. Inhibition of Fibrinogen--Mediated Platelet Aggregation, which is essentially based on the method described in Blood, Vol. 66, No. 4, Oct. 1985, pp. 846-952, and is as follows.
Human Platelets were isolated from freshly drawn whole blood and were suspended in 0.14 mol/L NaCl, 2.7 mmol/L […], 12 mmol/L NaHCO3, 0.42 mmol/L Na2 HPO4, 0.55 mmol/L glucose, and 5 mmol/L Hepes, pH 7.35 at 2×10^8 platelets/ml. The suspension was incubated at 37° C. An aliquot of 0.4 ml of platelet suspension was activated by human thrombin at a final concentration of 2 μg/ml of thrombin for one minute. After one minute the reaction was stopped by a thrombin inhibitor. Serial dilution of the compound being tested was then added to the activated platelet, the reaction was allowed to proceed for one minute, followed by the addition of human fibrinogen at a final concentration of […] of fibrinogen. Platelet aggregation was then recorded by an aggregometer. Rate of aggregation was used to calculate IC50.

[1] = biological target: T1, fibrinogen binding to thrombin-stimulated platelets (GPIIb/IIIa fibrinogen receptor) (Homo sapiens, UniProt P05106+P08514); test: Inhibition of Radiolabeled (125I) Fibrinogen Binding Assay; settings: read-out: Inhibition of 125I-Fibrinogen (binding to) Platelet IC50
T1 construct: endogenous in cells; host or cells: washed platelets stimulated with human alpha-thrombin
Description: I. Inhibition of Radiolabeled (^125 I) Fibrinogen Binding Assay, which is essentially based on the method described in Proc. Natl. Acad. Sci. USA Vol. 83, pp. 5708-5712, Aug. 1986, and is as follows.
Platelets are washed free of plasma constituents by the albumin density-gradient technique. In each experimental mixture platelets in modified Tyrode's buffer are stimulated with human α-thrombin at 22°-25° C. for 10 minutes (3.125×10" platelets per liter and thrombin at […]). Hirudin is then added at a 25-fold excess for 5 minutes before addition of the radiolabeled ligand and any competing ligand. After these additions, the final platelet count in the mixture is 1×10"/liter. After incubation for an additional 30 minutes at 22°-25° C., bound and free ligand are separated by centrifuging 50 μl of the mixture through 300 μl of 20% sucrose at 12,000 xg for 4 minutes. The platelet pellet is then separated from the rest of the mixture to determine platelet-bound radioactivity. Nonspecific binding is measured in mixtures containing an excess of unlabeled ligand. When binding curves are analyzed by Scatchard analysis, nonspecific binding is derived as a fitted parameter from the binding isotherm by means of a computerized program. To determine the concentration of each inhibitory compound necessary to inhibit 50% of fibrinogen binding to thrombin-stimulated platelets (IC50), each compound is tested at 0.176 μgmol/liter (60 μg/ml). The IC50 is derived by plotting residual fibrinogen binding against the logarithm of the sample compound's concentration.

[2] = no inhibition at concentrations of 50 μM or lower
[3] = thrombin-stimulated washed platelets, 22-25° C.

T1 sequence (P08514 32-887 limits assumed): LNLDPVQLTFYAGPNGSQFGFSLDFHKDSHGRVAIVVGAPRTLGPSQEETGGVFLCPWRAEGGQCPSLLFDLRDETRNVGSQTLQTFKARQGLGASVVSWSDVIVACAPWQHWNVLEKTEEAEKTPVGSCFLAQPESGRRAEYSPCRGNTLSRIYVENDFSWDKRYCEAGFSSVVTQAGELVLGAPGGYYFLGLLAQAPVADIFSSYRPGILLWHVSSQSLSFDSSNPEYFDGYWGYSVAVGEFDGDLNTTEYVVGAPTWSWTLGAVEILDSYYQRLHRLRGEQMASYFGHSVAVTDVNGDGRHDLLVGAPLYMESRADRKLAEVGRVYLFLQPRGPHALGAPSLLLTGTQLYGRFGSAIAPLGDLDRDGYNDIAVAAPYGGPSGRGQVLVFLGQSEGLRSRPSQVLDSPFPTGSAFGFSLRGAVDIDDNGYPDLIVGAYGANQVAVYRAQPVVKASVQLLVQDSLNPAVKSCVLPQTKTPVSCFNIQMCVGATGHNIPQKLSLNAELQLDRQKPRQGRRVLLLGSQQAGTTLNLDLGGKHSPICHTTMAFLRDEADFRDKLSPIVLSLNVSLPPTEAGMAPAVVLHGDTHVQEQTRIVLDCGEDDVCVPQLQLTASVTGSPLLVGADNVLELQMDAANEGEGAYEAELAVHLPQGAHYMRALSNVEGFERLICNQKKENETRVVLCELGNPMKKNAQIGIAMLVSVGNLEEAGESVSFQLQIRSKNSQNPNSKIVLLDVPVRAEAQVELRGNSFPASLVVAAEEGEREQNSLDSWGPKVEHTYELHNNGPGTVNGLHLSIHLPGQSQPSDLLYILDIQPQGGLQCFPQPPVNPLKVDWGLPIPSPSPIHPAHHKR
T1 sequence (P08514 891-1039 limits assumed): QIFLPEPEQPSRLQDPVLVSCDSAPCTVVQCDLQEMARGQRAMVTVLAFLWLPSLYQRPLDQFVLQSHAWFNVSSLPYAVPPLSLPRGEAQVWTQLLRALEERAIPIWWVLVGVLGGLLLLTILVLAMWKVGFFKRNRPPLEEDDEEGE
T1 sequence (P05106 27-788): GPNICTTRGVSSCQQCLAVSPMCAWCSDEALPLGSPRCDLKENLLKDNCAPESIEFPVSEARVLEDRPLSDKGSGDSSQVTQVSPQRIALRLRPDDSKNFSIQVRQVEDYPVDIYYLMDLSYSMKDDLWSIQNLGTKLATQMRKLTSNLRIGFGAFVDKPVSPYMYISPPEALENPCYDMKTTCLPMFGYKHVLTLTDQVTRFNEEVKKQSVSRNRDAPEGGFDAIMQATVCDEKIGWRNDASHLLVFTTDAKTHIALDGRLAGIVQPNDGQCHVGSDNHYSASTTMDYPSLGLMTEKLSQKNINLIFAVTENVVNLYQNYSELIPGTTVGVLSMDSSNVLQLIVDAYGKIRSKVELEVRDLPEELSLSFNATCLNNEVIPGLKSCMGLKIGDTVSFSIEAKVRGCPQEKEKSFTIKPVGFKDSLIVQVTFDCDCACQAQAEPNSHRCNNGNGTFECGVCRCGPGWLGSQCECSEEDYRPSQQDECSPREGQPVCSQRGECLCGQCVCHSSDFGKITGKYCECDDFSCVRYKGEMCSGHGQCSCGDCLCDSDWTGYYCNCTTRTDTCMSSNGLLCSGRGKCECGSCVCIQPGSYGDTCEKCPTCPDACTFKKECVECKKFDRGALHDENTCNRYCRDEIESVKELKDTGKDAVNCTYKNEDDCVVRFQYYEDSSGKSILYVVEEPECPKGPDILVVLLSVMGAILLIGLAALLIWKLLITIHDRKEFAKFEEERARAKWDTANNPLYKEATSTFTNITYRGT

Row | IC50 [1, 2] | IC50 (Human Platelets; Platelet) | IC50 [1, 3] | SMILES | inhibition at 25 µM (Human Platelets; Platelet) | Inhibition of Fibrinogen Mediated Platelet Aggregation % inhibition at 25 μM (Human Platelets) | IC50 (Human Platelets)
1 | ≥ 50 µM |  |  | CC(C)[C@H](NC(=O)[C@H](CC(=O)O)NC(=O)c1cccc(CCCNC(=N)N)c1)C(=O)O [3-(3-Guanidinopropyl)benzoyl-L-aspartyl-L-valine] | 52% |  | 
2 |  | 14 µM | 4.5 µM | CC(C)[C@H](NC(=O)[C@H](CC(=O)O)NC(=O)CCc1ccc(NC(=N)N)cc1)C(=O)O [3-(4-guanidinophenyl)propanoyl-L-aspartyl-L-valine] | 65% |  | 
3 | ≥ 50 µM |  |  | CC(C)[C@H](NC(=O)[C@H](CC(=O)O)NC(=O)c1cccc(NC(=N)N)c1)C(=O)O [3-Guanidinobenzoyl-L-aspartyl-L-valine, N-(3-guanidinobenzoyl)-L-aspartyl-L-valine] | 6.3% |  | 
4 |  |  |  | CC(C)[C@H](NC(=O)[C@H](CC(=O)O)NC(=O)Cc1cccc(CNC(=N)N)c1)C(=O)O [3-Guanidinomethylphenylacetoyl-L-aspartyl-L-valine] | 15.2% |  | 
5 |  | 7.6 µM |  | CC(C)[C@H](NC(=O)[C@H](CC(=O)O)NC(=O)c1ccc(CCCNC(=N)N)cc1)C(=O)O [4-(3-Guanidinopropyl)benzoyl-L-aspartyl-L-valine] | 83.3% |  | 
6 |  | 2.8 µM | 0.25 µM | CC(C)[C@H](NC(=O)[C@H](CC(=O)O)NC(=O)C=Cc1ccc(NC(=N)N)cc1)C(=O)O [4-Guanidino cinnamoyl-L-aspartyl-L-valine] | 25% |  | 
7 |  |  |  | CC(C)[C@H](NC(=O)[C@H](CC(=O)O)NC(=O)c1ccc(NC(=N)N)cc1)C(=O)O [4-Guanidinobenzoyl-L-aspartyl-L-valine, N-(4-quanidinobenzoyl)-L-aspartyl-L-valine] |  | 33.0% | 
8 | ≥ 50 µM |  |  | CC(C)[C@H](NC(=O)[C@H](CC(=O)O)NC(=O)Cc1ccc(CNC(=N)N)cc1)C(=O)O [4-Guanidinomethyl phenylacetoyl-L-aspartyl-L-valine] | 42% |  | 
9 | ≥ 50 µM | 30.2 µM |  | CC(C)[C@H](NC(=O)[C@H](CC(=O)O)NC(=O)c1cccc(CNC(=N)N)c1)C(=O)O [N-(3-guanidinomethylbenzoyl)-L-aspartyl-L-valine] | 53% |  | 
10 |  |  | 22 µM | CC(C)[C@H](NC(=O)[C@H](CC(=O)O)NC(=O)c1ccc(CNC(=N)N)cc1)C(=O)O [N-(4-guanidinomethylbenzoyl)-L-aspartyl-L-valine] | 16% |  | 
11 |  |  | 20 µM | CC(C)[C@H](NC(=O)[C@H](CC(=O)O)NC(=O)Cc1ccc(NC(=N)N)cc1)C(=O)O [N-(4-guanidinophenylacetoyl)-L-aspartyl-L-valine] | 43% |  | 
12 |  | 33.1 µM | 115 µM | CC(C)[C@H](NC(=O)[C@H](CC(=O)O)NC(=O)c1cccc(CCNC(=N)N)c1)C(=O)O [N-[3-(2-guanidinoethyl)benzoyl]-L-aspartyl-L-valine] | 37% |  | 

Row | SMILES | IC50 [1, 2] | IC50 (Human Platelets; Platelet) | IC50 [1, 3] | inhibition at 25 µM (Human Platelets; Platelet) | Inhibition of Fibrinogen Mediated Platelet Aggregation % inhibition at 25 μM (Human Platelets) | IC50 (Human Platelets)
13 | CC(C)[C@H](NC(=O)[C@H](CC(=O)O)NC(=O)c1ccc(CCNC(=N)N)cc1)C(=O)O [4-(2-quanidinoethyl)benzoyl]-L-aspartyl-L-valine] |  |  | 10.9 µM |  | 85.0% | 7.7 µM
